Several values for one entry are separate records, joined by “and”; a condition that tells them apart may be missing. Identical values can stand only once. Activity calls are given as the source filed them.
How the values were obtained:
[1] = viability loss in A549 lung cells – cell-based, 24 h, CellTiter-Glo luminescence, cherry-picks, cytotoxicity control, dose response (AID 1053115); assay type: functional; details: A549, 24 h
[2] = lung carcinoma cell viability loss – CellTiter-Glo luminescence, dry powder, set 17, dose response (AID 1117284); assay type: functional, cell-based; details: A549
[3] = target: Peroxisome proliferator-activated receptor gamma/Nuclear receptor corepressor 2 (Homo sapiens, UniProt P37231+Q9Y618); assay: Counterscreen for NR2E3 inverse agonists: TR-FRET-based biochemical high throughput dose response assay to identify inverse agonists of the interaction between peroxisome proliferator-activated receptor gamma (PPARg) and nuclear receptor co-repressor 2 (NCOR2).; assay type: functional
[4] = target: Photoreceptor-specific nuclear receptor (Homo sapiens, UniProt Q9Y5X4); assay: ligands suppressing NR2E3 nuclear receptor activity – biochemical, TR-FRET, dose response (AID 463256); assay type: functional
[5] = growth inhibition of yeast DHODH-expressing 3D7 parasites – SYBR Green, dry powder samples, dose response (AID 1159570); assay type: functional, cell-based;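 note: parasite growth measured after 72 hours of compound exposure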
[6] = toxicity to human HepG2 hepatoma cells – cell-based, plate reader, dry powder samples, cytotoxicity control, dose response (AID 1159569); assay type: functional;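 note: inhibitor potency with signal falling toward the positive control level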
[7] = P. falciparum Dd2 growth inhibitors, dose response, SYBR Green, cherry-picked samples (AID 1159567); assay type: functional, cell-based
[8] = Dd2 malaria parasite growth inhibition potency – SYBR Green, dry powder samples, dose response (AID 1159566); assay type: functional, cell-based;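 note: potency for growth inhibition with lower SYBR green DNA signal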
[9] = toxicity to human hepatoma HepG2 cells – cell-based, cherry-picked samples, cytotoxicity control, dose response (AID 1159577); assay type: functional
[10] = Plasmodium falciparum Dd2 Sybr green parasite growth Measured in Cell-Based and Microorganism Combination System Using Plate Reader - 2153-01_Inhibitor_Dose_DryPowder_Activity_Set3.; assay type: functional
[11] = growth inhibition of PfATP4-mutant resistant parasites – NITD609-resistant line, SYBR Green, dry powder, dose response (AID 1159571); assay type: functional, cell-based;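 note: parasites synchronized at ring stage by sorbitol before testing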
[12] = luciferase reporter signal suppression in cells – H4 neuroglioma cells, luminescence, dose response (AID 1990); assay type: functional, cell-based
[13] = test system: Streptococcus sp. 'group A'; assay: Streptococcus pyogenes SK(-)GAS viability under kanamycin – luminescence, BacTiterGlo, confirmation, counter-screen for streptokinase expression inhibitor project, dose response (AID 1900); assay type: functional, organism-based
[14] = Luminescence Cell-Based Dose Response HTS to Identify Inhibitors of 5'UTR Stem-Loop Driven Prion Protein mRNA Translation in H4 Neuroglioblastoma Cells. [Related pubchem assays: 1827 (Project Summary), 1813 (Primary HTS)]; assay type: functional
[15] = alpha-synuclein stem-loop luciferase translation blockers – H4 neuroglioma cells, luminescence, confirmation (AID 1988); assay type: functional, cell-based
Streptokinase A = target: T1, Streptokinase A (Streptococcus pyogenes serotype M1, UniProt P10520); assay: viability-normalized secreted streptokinase activity reduction – plasminogen activation absorbance, OD405, dose response (AID 1914); assay type: functional, Streptococcus pyogenes M1 GAS;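 note: secreted streptokinase activity via plasminogen activation per viability signal from cell pellet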
T1 sequence (P10520 whole entry): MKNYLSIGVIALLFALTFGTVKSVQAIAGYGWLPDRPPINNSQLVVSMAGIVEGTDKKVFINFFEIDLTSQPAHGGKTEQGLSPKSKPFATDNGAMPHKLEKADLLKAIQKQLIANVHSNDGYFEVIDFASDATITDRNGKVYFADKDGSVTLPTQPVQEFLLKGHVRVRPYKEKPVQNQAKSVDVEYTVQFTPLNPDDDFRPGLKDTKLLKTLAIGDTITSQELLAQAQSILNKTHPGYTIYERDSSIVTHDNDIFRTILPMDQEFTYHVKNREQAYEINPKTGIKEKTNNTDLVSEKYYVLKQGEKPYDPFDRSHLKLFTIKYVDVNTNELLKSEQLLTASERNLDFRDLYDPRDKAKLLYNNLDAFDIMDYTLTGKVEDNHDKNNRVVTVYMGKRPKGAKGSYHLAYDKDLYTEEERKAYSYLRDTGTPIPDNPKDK

Streptococcus = assay: GAS UMAA2166 growth inhibition – luminescence, BacTiterGlo, counter-screen for streptokinase expression inhibitor project, dose response (AID 1915); assay type: functional, organism-based;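 note: potency for reduction of bacterial viability or growth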
[16] = viability loss in Vero cells – cytotoxicity control for Vif-APOBEC3G degradation inhibitor project, dose response (AID 1117358); assay type: functional; details: Vero
[17] = Dd2 parasite growth inhibition in erythrocytes – SYBR Green, dry powder samples, set 9, dose response (AID 1159568); assay type: functional, cell-based
[18] = viability loss in A549 lung cancer cells – cell-based, CellTiter-Glo luminescence, dry powder, set 5, cytotoxicity control, dose response (AID 743158); assay type: functional
[19] = viability loss in HEK293T cells – cell-based, ATP luminescence, dry powder, set 3, cytotoxicity control, dose response (AID 743131); assay type: functional; details: HEK293
[20] = viability loss in HepG2 hepatoma cells – cell-based, ATP luminescence, dry powder, set 2, cytotoxicity control, dose response (AID 743129); assay type: functional
[21] = RKO cell viability reduction, dose response, CellTiter-Glo luminescence (AID 1117322); assay type: functional
[22] = cytotoxicity toward HCT116 cells – cell-based, CellTiter-Glo luminescence, IC50, dose response (AID 1117332); assay type: functional; details: HCT-116
[23] = SNU-C1 cell viability reduction, dose response, CellTiter-Glo luminescence (AID 1117323); assay type: functional, cell-based
[24] = cytotoxicity toward Colo320 cells – cell-based, CellTiter-Glo luminescence, IC50, dose response (AID 1117334); assay type: functional; details: COLO 320
[25] = cytotoxicity toward HT-29 cells – cell-based, CellTiter-Glo luminescence, IC50, dose response (AID 1117330); assay type: functional
[26] = Reduced DLD-1 viability, concentration-response, CellTiter-Glo luminescence (AID 1117352); assay type: functional
[27] = HCT116 cell viability decrease, GSK3B pretreatment – CellTiter-Glo, IC50, dose response (AID 1117339); assay type: functional; details: HCT-116
[28] = NIH-3T3 fibroblast cytotoxicity, dose response, cytotoxicity control, cell-based, fluorescence, Alamar Blue, secondary assay (AID 2327); assay type: functional;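 note: NIH-3T3 mouse fibroblasts cultured with fluconazole at 8 µg/mL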
[29] = fluconazole-exposed Candida albicans growth modulators – fluorescence, retest, confirmation (AID 2467); assay type: functional, cell-based
[30] = target: T2, Serine/threonine-protein phosphatase (Candida dubliniensis (strain CD36 / CBS 7987 / NCPF 3949 / NRRLY-17841) (Yeast), UniProt B9W6M3); assay: blockers of CaCl2-induced CDRE-lacZ signaling – S. cerevisiae, luminescence, secondary, dose response (AID 2388); assay type: functional, cell-based;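 note: yeast reporter cells carrying a calcineurin-responsive lacZ construct stimulated with calcium chloride; luminescent beta-galactosidase reporter signal in whole cells rather than isolated phosphatase activity; potency for inhibition where a drop in reporter signal means calcineurin blockade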
T2 sequence (B9W6M3 whole entry): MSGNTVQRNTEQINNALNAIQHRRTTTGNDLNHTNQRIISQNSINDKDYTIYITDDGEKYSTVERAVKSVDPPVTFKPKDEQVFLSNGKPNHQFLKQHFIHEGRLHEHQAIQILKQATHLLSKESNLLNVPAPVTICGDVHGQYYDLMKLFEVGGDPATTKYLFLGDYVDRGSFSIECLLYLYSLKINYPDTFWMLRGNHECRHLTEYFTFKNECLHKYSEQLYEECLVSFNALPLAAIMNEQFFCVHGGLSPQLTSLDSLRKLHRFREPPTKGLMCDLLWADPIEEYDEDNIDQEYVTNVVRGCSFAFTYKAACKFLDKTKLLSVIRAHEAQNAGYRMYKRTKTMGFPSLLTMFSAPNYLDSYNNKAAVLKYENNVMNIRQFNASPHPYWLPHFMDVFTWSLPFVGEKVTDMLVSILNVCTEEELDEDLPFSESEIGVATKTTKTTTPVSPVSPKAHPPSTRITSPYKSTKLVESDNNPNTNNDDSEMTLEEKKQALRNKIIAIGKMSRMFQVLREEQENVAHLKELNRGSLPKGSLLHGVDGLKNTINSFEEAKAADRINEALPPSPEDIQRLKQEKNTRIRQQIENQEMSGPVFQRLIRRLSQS

Cytochrome P450 2C19 = Cytochrome P450 2C19 (Homo sapiens, UniProt P33261); assay: Cytochrome panel assay with activity outcomes. Panel member name: p450-cyp2c19 Compounds with AC50 equal or less than 10 uM are considered active; assay type: functional; details: read-out: AC50
[31] = target: Heat shock protein HSP 90-alpha (Homo sapiens, UniProt P07900); assay type: functional, organism-based
[32] = target: ATP-dependent molecular chaperone HSP82 (Candida albicans (strain WO-1) (Yeast), UniProt C4YTQ8); assay: steroid-induced GRE reporter decrease in yeast – S. cerevisiae, luminescence, Hsp90 inhibitor project, dose response (AID 2400); assay type: functional, cell-based;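 note: beta-galactosidase luminescence from glucocorticoid response element reporter as proxy for Hsp90 function; inhibitor potency where signal loss means Hsp90 inhibition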
[33] = target: Beta-2 adrenergic receptor (Homo sapiens, UniProt P07550); assay: ADRB2 activation measured by internalization – cell-based, FAP fluorogen, flow cytometry, cherry pick 1, dose response (AID 588763); assay type: functional
[34] = rise of 2N DNA cells, HeLa – IC50, dose response (AID 1117349); assay type: functional, cell-based
[35] = glucagon-like peptide-1 release potency in STC-1, concentration-response, half-maximal inhibitory concentration in the STC-1 line (AID 1117345); assay type: functional, cell-based
[36] = rise of 4N DNA cells, HeLa – IC50, dose response (AID 1117351); assay type: functional, cell-based
[37] = Potency on glucagon-like peptide 1 release, dose-response in NCI-H716 cell line, half maximal inhibitory concentration (AID 1117344); assay type: functional, cell-based
Cytochrome P450 2D6 = Cytochrome P450 2D6 (Homo sapiens, UniProt P10635);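 note: CYP2D6 member of a cytochrome P450 panel assay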
Cytochrome P450 2C9 = Cytochrome P450 2C9 (Homo sapiens, UniProt P11712)
[38] = target: Mitogen-activated protein kinase 10 (Homo sapiens, UniProt P53779); assay: Dose response biochemical screening assay for inhibitors of c-Jun N-Terminal Kinase 3 (JNK3). [Related pubchem assays: 746 ]
fMet-Leu-Phe receptor = target: T3, fMet-Leu-Phe receptor (Homo sapiens, UniProt P21462); assay: formyl peptide receptor binders – dose response (AID 519); assay type: functional
T3 sequence (P21462 whole entry): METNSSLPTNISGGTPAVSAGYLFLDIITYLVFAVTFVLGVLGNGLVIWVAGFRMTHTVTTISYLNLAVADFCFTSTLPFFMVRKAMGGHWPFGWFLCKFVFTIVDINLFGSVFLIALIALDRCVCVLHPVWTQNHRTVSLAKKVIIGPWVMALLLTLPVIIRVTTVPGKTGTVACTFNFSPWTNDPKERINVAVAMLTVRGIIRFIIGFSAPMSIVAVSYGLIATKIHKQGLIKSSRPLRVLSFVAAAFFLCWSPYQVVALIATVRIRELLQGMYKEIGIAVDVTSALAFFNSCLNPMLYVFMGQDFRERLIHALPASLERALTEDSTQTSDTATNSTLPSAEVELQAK

Chain of Cytochrome P450 2C9 (P11712 whole entry): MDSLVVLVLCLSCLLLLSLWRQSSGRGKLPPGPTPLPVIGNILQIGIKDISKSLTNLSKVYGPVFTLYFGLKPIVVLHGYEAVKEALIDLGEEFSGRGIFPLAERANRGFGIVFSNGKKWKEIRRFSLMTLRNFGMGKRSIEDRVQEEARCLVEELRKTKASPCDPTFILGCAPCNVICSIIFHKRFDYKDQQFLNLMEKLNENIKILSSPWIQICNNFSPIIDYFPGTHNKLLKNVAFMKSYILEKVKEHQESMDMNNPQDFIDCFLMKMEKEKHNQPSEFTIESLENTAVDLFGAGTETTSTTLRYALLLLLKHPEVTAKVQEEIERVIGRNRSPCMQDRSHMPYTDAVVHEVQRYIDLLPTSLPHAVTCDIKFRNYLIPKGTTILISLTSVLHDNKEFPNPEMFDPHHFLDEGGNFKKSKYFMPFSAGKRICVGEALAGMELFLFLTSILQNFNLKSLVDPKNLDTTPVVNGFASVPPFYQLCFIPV
Chain of Cytochrome P450 2D6 (P10635 whole entry): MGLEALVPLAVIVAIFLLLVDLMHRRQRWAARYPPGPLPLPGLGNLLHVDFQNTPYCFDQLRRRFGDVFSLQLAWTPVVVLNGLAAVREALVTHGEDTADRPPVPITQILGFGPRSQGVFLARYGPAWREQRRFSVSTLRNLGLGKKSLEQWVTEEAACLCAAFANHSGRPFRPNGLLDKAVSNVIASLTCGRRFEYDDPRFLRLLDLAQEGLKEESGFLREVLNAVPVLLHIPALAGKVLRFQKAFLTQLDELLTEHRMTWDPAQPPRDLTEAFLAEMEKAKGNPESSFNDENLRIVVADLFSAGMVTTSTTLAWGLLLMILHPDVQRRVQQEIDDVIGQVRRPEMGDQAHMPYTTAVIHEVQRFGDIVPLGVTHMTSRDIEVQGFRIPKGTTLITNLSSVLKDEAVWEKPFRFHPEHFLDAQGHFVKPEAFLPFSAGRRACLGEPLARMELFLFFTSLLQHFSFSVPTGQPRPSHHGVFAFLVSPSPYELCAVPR
Chain of Cytochrome P450 2C19 (P33261 whole entry): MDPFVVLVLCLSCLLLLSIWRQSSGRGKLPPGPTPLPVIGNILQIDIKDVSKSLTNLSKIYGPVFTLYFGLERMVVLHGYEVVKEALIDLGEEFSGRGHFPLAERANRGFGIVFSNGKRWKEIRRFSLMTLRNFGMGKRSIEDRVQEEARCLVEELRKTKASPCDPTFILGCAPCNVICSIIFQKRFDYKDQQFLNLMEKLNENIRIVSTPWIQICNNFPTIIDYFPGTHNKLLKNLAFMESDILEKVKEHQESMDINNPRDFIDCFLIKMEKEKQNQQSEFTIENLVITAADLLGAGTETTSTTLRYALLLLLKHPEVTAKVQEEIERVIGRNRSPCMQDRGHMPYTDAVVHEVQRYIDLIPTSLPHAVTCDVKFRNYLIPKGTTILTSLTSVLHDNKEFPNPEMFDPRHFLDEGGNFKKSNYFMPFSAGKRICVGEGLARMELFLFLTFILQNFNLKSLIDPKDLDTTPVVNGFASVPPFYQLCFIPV
Chain of Beta-2 adrenergic receptor (P07550 whole entry): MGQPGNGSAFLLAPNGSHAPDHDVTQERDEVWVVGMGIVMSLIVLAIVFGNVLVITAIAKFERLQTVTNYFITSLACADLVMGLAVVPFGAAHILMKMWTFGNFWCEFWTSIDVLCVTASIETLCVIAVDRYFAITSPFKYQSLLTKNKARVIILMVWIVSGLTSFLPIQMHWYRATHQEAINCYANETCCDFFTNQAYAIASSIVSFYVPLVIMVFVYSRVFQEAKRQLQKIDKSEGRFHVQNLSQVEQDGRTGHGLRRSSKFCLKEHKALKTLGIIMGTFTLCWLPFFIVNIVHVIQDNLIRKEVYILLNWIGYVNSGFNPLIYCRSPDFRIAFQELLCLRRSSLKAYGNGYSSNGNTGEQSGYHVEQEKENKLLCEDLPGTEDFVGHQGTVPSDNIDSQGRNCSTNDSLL
Chain of ATP-dependent molecular chaperone HSP82 (C4YTQ8 whole entry): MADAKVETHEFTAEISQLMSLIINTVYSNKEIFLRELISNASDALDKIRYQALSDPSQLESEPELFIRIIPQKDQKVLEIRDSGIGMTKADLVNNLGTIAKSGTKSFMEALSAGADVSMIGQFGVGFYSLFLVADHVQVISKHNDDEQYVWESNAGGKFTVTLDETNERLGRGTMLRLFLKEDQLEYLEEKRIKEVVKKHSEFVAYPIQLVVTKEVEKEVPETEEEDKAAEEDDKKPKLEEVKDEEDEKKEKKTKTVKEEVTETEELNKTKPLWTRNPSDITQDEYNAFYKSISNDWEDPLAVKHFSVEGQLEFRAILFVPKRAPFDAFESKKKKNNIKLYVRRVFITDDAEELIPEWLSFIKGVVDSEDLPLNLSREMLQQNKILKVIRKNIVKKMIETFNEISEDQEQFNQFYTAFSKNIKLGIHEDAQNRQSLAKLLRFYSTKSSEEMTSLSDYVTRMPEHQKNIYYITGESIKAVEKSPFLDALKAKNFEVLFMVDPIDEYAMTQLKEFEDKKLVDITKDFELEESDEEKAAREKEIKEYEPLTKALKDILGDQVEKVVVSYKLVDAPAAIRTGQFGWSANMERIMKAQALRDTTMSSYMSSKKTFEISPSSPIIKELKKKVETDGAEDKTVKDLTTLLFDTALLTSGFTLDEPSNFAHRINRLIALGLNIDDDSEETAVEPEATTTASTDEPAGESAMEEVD
Chain of Mitogen-activated protein kinase 10 (P53779 whole entry): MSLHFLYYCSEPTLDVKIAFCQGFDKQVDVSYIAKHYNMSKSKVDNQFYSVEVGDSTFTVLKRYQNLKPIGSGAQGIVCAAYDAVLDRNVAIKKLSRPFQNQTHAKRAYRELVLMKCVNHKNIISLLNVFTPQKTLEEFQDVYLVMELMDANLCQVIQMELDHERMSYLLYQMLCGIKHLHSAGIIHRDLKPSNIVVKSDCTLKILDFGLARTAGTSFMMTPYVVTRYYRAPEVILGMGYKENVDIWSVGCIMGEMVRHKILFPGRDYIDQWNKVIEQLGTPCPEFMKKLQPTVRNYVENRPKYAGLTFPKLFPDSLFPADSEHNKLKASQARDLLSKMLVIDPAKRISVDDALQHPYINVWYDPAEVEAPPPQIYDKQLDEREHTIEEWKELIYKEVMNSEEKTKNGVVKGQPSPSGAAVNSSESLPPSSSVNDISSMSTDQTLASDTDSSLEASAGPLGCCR
Chain of Photoreceptor-specific nuclear receptor (Q9Y5X4 whole entry): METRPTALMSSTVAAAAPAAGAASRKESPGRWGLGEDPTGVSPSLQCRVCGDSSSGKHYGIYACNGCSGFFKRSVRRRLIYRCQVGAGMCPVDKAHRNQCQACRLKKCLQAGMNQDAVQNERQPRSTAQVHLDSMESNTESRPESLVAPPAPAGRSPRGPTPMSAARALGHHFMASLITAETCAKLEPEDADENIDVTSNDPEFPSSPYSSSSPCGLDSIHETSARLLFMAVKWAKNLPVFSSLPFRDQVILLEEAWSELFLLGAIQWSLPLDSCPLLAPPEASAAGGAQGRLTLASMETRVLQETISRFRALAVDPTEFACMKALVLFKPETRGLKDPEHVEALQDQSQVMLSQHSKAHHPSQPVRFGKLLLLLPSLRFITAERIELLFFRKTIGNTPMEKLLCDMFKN

C[C@H](CO)N1C[C@H](C)[C@@H](CN(C)Cc2ccc(-c3ccccc3)cc2)Oc2cc(C#C[C@@H](C)O)ccc2S1(=O)=O
AC50 [1]: 52.6 µM (active) | AC50 [2]: 42.5 µM (active)

COc1cc2ccccc2cc1C(=O)Nc1ccc2oc(=O)ccc2c1
IC50 [3]: 2.86 µM (active) | IC50 [4]: 2.28 µM (active)

CO[C@@H]1CN(C)C(=O)c2ccc(NC(=O)Nc3ccccc3Cl)cc2OC[C@@H](C)N(C)C[C@H]1C
AC50 [5]: 4.25 µM (active) | AC50 [6]: 62.2 µM (active) | AC50 [7]: 0.666 µM (active) | AC50 [8]: 0.102 µM (active) | AC50 [9]: > 39 µM (inactive) | AC50 [10]: 0.446 µM (active) | AC50 [11]: 0.512 µM (active)

CC(C)c1ccc(-c2[nH]c(N3CCCC3)nc3nnc(N)c2-3)cc1
EC50 [12]: > 120 µM (not active) | EC50 [13]: 103 µM (active) | EC50 [14]: > 120 µM (not active) | EC50 [15]: 12.9 µM (active) | EC50 (Streptokinase A): > 150 µM (not active) | EC50 (Streptococcus): > 150 µM (not active) | CC50 [16]: > 40 µM (active)

C[C@@H]1CCCCO[C@H](CN(C)S(=O)(=O)c2ccc(F)cc2)[C@@H](C)CN([C@H](C)CO)C(=O)c2cc(N(C)C)ccc2O1
AC50 [17]: 11.4 µM (active)

CCOC(=O)c1c(-c2ccc(-c3ccccc3)cc2)csc1NC(=O)CNCCN(C)C
AC50 [18]: 17.1 µM (active) | AC50 [19]: 13.3 µM (active) | AC50 [20]: 16.5 µM (active)

Cc1ccc2c(Br)cc(Br)c(O)c2n1 [BROQUINALDOL]
IC50 [21]: 0.311 µM (active) | IC50 [22]: 1.16 µM (active) | IC50 [23]: 12.8 µM (inactive) | IC50 [24]: 0.001 µM (active) | IC50 [25]: > 6.67 µM (inactive) | IC50 [26]: 4.77 µM (active) | IC50 [27]: 1.03 µM (active)

Clc1ccccc1C(c1ccccc1)(c1ccccc1)n1ccnc1 [CLOTRIMAZOLE]
EC50 [28]: 11.6 µM (active) | EC50 [13]: 4.3 µM (active) | EC50 (Streptokinase A): > 150 µM (not active) | EC50 [29]: 0.628 µM (active) | EC50 [30]: > 180 µM (inactive) | EC50 (Streptococcus): 7.15 µM (active) | AC50 (Cytochrome P450 2C19): 10 µM (active) and 7.94 µM (inconclusive) | AC50 [31]: < 0.195 µM (active) | EC50 [32]: > 150 µM (inactive) | EC50 [33]: 4.69 µM (active) | IC50 [34]: > 10 µM (inactive) | IC50 [35]: > 40 µM (inactive) | IC50 [36]: > 10 µM (inactive) | IC50 [37]: 20.2 µM (inactive) | AC50 (Cytochrome P450 2D6): 10 µM (active) and 39.8 µM (inconclusive) | AC50 (Cytochrome P450 2C9): 1 µM (active) and 316 nM (active)

CCCOc1ccc(C2C(C(=O)c3ccc(C)o3)=C(O)C(=O)N2CCCn2ccnc2)cc1 (configuration not stated)
IC50 [38]: 19.7 µM (not active) | Ki (fMet-Leu-Phe receptor): 13.8 µM (active)

Reference: ChEMBL document CHEMBL1201862, “PubChem BioAssay data set” (2004)
